# Data as given in US20050215635A1, “Diarylheptanoid compounds and uses thereof” (priority 2004, published 2005).
# How the values were obtained:
# [1] = Radical-scavenging activity by DPPH; conditions: for IC50: DPPH 63.4 μM in methanol, absorbance at 515 nm, steady state, read-out: IC50 (μM) of Diarylheptanoids in Scavenging DPPH Free Radicals; for free radical scavenging, DPPH data (in words): DPPH assay
# Source text: In this example, the 2,2-diphenyl-1-picrylhydrazyl (DPPH) method was used to explore the capacity of five isolated compounds of the invention to act as free radical scavengers. The DPPH assay has been extensively used to test the free radical scavenging ability of various chemicals (Brand-williams, W. et al., Wiss. Technol. 1995, 28, 25-30; Dinis, T. C. et al., Arch. Biochem. Biophys. 1994, 315, 161-169.)
# This method was adapted from that of Brand-Williams, et al. (Brand-williams, W.; Cuvelier, M. E.; Berset, C. Lebensm. Wiss. Technol. 1995, 28, 25-30.). At least seven different concentrations were prepared for each purified compound. 25 μl pure compound solution and 975 μL DPPH solution (63.4 μM) were mixed together and left in the dark for 30 min. Each sample was triplicated and the values were averaged. The absorbance of the samples was measured at 515 nm against methanol solution without DPPH as the blank reference. The absorbance was measured every 30 min until the reaction reached a plateau. The reaction kinetics were then plotted using the above data and the percentage of DPPH remaining at the steady state was obtained. IC50 values were determined by extrapolation from linear regression analysis.
# DPPH, 2,2-Diphenyl-1-picrylhydrazyl (DPPH.), is a stable radical in methanol solution. In its radical form, DPPH. absorbs at 515 nm, but the absorption ceases upon reduction by an antioxidant (AH) or a radical species (R.) (Brand-williams, W.; Cuvelier, M. E.; Berset, C. Lebensm. Wiss. Technol. 1995, 28, 25-30.). The concentration of tested chemicals needed to decrease the initial DPPH. concentration by 50% (IC50) is a parameter widely used to measure the antioxidant potential (Kanner, J.; Frankel, E.; German, B.; Kinsella, J. e. J. Agric. Food Chem. 1994, 42, 64-69, Vinson, J. A.; Dabbagh, Y. A.; Serry, M. M. J. Agric. Food Chem. 1995a, 43,2800-2802.). The lower the IC50, the higher the free radical scavenging power.
# [2] = test system: Du-145 prostate tumor cells; assay: MTT-microculture tetrazolium cell viability assay / induction of apoptosis in Du-145; type: cell-based; conditions: for IC50: Homo sapiens, Du-145 prostate tumor cells, MTT, 72 hours incubation, drug concentration giving 50% inhibition of growth, read-out: IC50 (μM), Effects of Diarylheptanoids on Inducing Apoptosis in DU-145 Cancer Cell Line; for activity in bioassay: inducing apoptosis in Du-145 cancer cell line (in words): bioassay-directed fractionation of Alpinia officinarum
# Protocol: The rhizomes of Alpinia officinarum were purchased from Nuherbs Co. (Oakland, Calif.). Du-145 prostate tumor cells were obtained from the American Type Culture Collection (ATCC). Cells were maintained at 37° C. in an atmosphere of 5% CO2 and grown in Roswell Park Memorial Institute (RPMI) media 1640 (GIBCO/BRL) with 10% fetal bovine serum and with 5% penicillin and streptomycin.
# The powdered roots of Alpinia officinarum were extracted with methanol and concentrated under vacuum using rotary evaporation. The dried residue was then partitioned with hexanes, ethyl acetate and 1-butanol successively. The three extracts were subjected to bioassays.
# The dried ethyl acetate extract was then chromatographed on a normal phase silica gel column (2.5×30 cm) to perform bioassay-directed fractionation. The extract was first dissolved in methanol and loaded onto the column packing material. The prepared extract was then placed on top of the column and elution was performed using a solvent mixture of chloroform/methanol with an increasing amount of methanol (30:1, 20:1, 10:1, 5:1, 0:100; each 1000 mL). Successive fractions were collected and tested for biological activity. […] This fraction was then rechromatographed on a semipreparative Zorbax Rx-C18 reversed phase HPLC column (9.4 mm×240 mm, 5 μm) purchased from MacMod Analytical (Chadds Ford, Pa.). Compounds were eluted by an isocratic solvent system: 55% A, water with 0.05% formic acid (FA); 45% B, ACN (v/v) at a flow rate of 4 mL/min. The wavelength monitored was 205 nm. Successive fractions (1-3) were collected and sent for biological testing again.
# Cellular growth in the presence or absence of experimental agents was determined using the modified method as previously described MTT-microculture tetrazolium assay (World Health Organization (ED.), Medicinal Plants in China, WHO Regional Publications, 1989, 21). Briefly, rapidly growing cells were harvested, counted, and inoculated at the appropriate concentrations (100 μL volume) into 96-well micro-titer plates using a multichannel pipet. After 24 hours, AO-1 to AO-5 were applied in different concentrations to triplicate culture wells, and cultures were incubated for 72 hours at 37° C. MTT ( Sigma, St. Louis, Mo.) was prepared at 2 mg/ml in Phosphate buffered saline (PBS) and 50 μL were added to microculture wells. After 4 hour incubation at 37° C., […] were removed from each well, and 150 μL of 100% DMSO were added to solubilize the MTT-formazan product. After thorough mixing with a mechanical plate mixer, absorbence was measured at 570 nm using a Dynatech microplate reader. […] This assay is based on the reduction of MTT tetrazolium salt to a formazan product by the metabolic activity of live cells and which was measured in a multiwell scanning spectrophotometer. Cell line growth and growth inhibition were expressed in terms of mean absorbance units and following the substraction of mean background absorbance.
IC50 [1] [µM],IC50 [2] [µM],Compound,activity in bioassay: inducing apoptosis in Du-145 cancer cell line (in words) [2],"free radical scavenging, DPPH data (in words) [1]"
> 1000,20,"O=C(/C=C/CCc1ccc(O)cc1)CCc1ccccc1 [AO-3, 7-(4″-hydroxyphenyl)-1-phenyl-hept-4-en-3-one]",some activity,
11.4,100,"COc1cc(CCC(O)CC(=O)CCc2ccccc2)ccc1O (stereo not shown) [AO-1, 5-Hydroxy-7-(4″-hydroxy-3″methoxyphenyl)-1-phenyl-3-heptanone]",biological activity to some level,very good free radical scavengers
12.7,88,"COc1cc(CCC(CC(=O)CCc2ccccc2)OC)ccc1O (stereo not shown) [AO-2, 5-methoxy-7-(4″-hydroxy-3″methoxyphenyl)-1-phenyl-3-heptanone]",some activity,very good free radical scavengers
> 5000,32,"O=C(/C=C/CCc1ccccc1)CCc1ccccc1 [AO-5, 1,7-diphenylhept-4-en-3-one]",,
